Where two headings read alike, the source gives them in different places.
What was measured:
K-562 = test: Inhibition of cells growth by colorimetric (SRB) assay, K-562
Summary of the method: (§1)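 Read-out is sulforhodamine B protein stain (OD 490 nm) after cold TCA fixation, following 48 h continuous exposure to samples spanning 10 to 10^−8 μg/ml.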

LoVo = test: Inhibition of cells growth by colorimetric (SRB) assay, LoVo; conditions: for CC50: read-out: LC50 LOVO
Summary of the method: as §1

LoVo-Dox = test: Inhibition of cells growth by colorimetric (SRB) assay, LoVo-Dox
Summary of the method: as §1

SK-OV-3 = test: Inhibition of cells growth by colorimetric (SRB) assay, SK-OV-3
Summary of the method: as §1

SK-BR-3 = test: Inhibition of cells growth by colorimetric (SRB) assay, SK-BR-3
Excerpt: The finality of these assays is to interrupt the growth of a “in vitro” tumor cell culture by means a continued exhibition of the cells to the sample to be testing.
This form of the assay employs 96 well cell culture microplates of 9 mm diameter (Faircloth, 1988; Mosmann, 1983). Most of the cell lines are obtained from American Type Culture Collection (ATCC) derived from different human cancer types.
Cells are maintained in RPMI 1640 10% FBS, supplemented with 0.1 g/l penicillin and 0.1 g/l streptomycin sulphate and then incubated at 37° C., 5% CO2 and 98% humidity. For the experiments, cells were harvested from subconfluent cultures using trypsin and resuspended in fresh medium before plating.
Cells are seeded in 96 well microtiter plates, at 5×10^3 cells per well in aliquots of 195 μl medium, and they are allowed to attach to the plate surface by growing in drug free medium for 18 hours. Afterward, samples are added in aliquots of 5 μl in a ranging from 10 to 10^−8 μg/ml, dissolved in DMSO/EtOH/PBS (0.5:0.5:99). After 48 hours exposure, the antitumor effect are measured by the SRB methodology: cells are fixed by adding 50 μl of cold 50% (wt/vol) trichloroacetic acid (TCA) and incubating for 60 minutes at 4° C. Plates are washed with deionized water and dried. One hundred μl of SRB solution (0.4% wt/vol in 1% acetic acid) is added to each microtiter well and incubated for 10 minutes at room temperature. Unbound SRB is removed by washing with 1% acetic acid. Plates are air dried and bound stain is solubilized with Tris buffer. Optical densities are read on a automated spectrophotometric plate reader at a single wavelength of 490 nm.
The values for mean +/−SD of data from triplicate wells are calculated. Some parameters for cellular responses can be calculated: GI=growth inhibition, TGI=total growth inhibition (cytostatic effect) and LC=cell killing (cytotoxic effect).

IGROV-1 = test: Inhibition of cells growth by colorimetric (SRB) assay, IGROV-1; conditions: for CC50: read-out: LC50 IGROV
Summary of the method: as §1

SK-MEL-28 = test: Inhibition of cells growth by colorimetric (SRB) assay, SK-MEL-28; conditions: SRB assay, 48 hours exposure; for GI50: read-out: GI50 MEL-28; for CC50: read-out: LC50 MEL-28
Summary of the method: as §1

DU-145 = test: Inhibition of cells growth by colorimetric (SRB) assay, DU-145; conditions: for CC50: read-out: LC50 DU-145
Summary of the method: as §1

A-549 = test: Inhibition of cells growth by colorimetric (SRB) assay, A-549
Summary of the method: as §1

PANC-1 = test: Inhibition of cells growth by colorimetric (SRB) assay, PANC-1
Summary of the method: as §1

IGROV-ET = test: Inhibition of cells growth by colorimetric (SRB) assay, IGROV-ET
Summary of the method: as §1

HT-29 = test: Inhibition of cells growth by colorimetric (SRB) assay, HT-29
Summary of the method: as §1

`Nc1nccc(-c2c3c(N)ccnc3n3c(N)nccc23)n1` [Compound 90] was tested, and the GI50 (K-562; Homo sapiens, K562, 48 h, read-out: GI50 K-562, SRB assay, 48 hours exposure) was 1.23 µM, the CC50 (K-562; Homo sapiens, K562, 48 h, read-out: LC50 K-562, SRB assay, 48 hours exposure) was 15.8 µM and the “TGI K-562” value (K-562; SRB assay, 48 hours exposure) was 5.28E−06. For the same compound, the GI50 (LoVo; Homo sapiens, LoVo, 48 h, read-out: GI50 LOVO, SRB assay, 48 hours exposure) was 0.276 µM, the “TGI LOVO” value (LoVo; SRB assay, 48 hours exposure) was 6.54E−07 and the CC50 (LoVo; SRB assay, 48 hours exposure) was 1.56 µM. The GI50 (LoVo-Dox; Homo sapiens, 48 h, read-out: GI50 LOVO-DOX, SRB assay, 48 hours exposure) was 0.597 µM, the CC50 (LoVo-Dox; Homo sapiens, 48 h, read-out: LC50 LOVO-DOX, SRB assay, 48 hours exposure) was 8.07 µM and the “TGI LOVO-DOX” value (LoVo-Dox; SRB assay, 48 hours exposure) was 1.27E−06. The GI50 (SK-OV-3; Homo sapiens, SK-OV-3, 48 h, read-out: GI50 SKOV-3, SRB assay, 48 hours exposure) was 0.465 µM, the CC50 (SK-OV-3; Homo sapiens, SK-OV-3, 48 h, read-out: LC50 SKOV-3, SRB assay, 48 hours exposure) was 13.9 µM and the “TGI SKOV-3” value (SK-OV-3; SRB assay, 48 hours exposure) was 1.15E−06. For the same compound, the GI50 (SK-BR-3; Homo sapiens, SK-BR-3, 48 h, read-out: GI50 SK-BR-3, SRB assay, 48 hours exposure) was 0.311 µM, the CC50 (SK-BR-3; Homo sapiens, SK-BR-3, 48 h, read-out: LC50 SK-BR-3, SRB assay, 48 hours exposure) was 1.42 µM and the “TGI SK-BR-3” value (SK-BR-3; SRB assay, 48 hours exposure) was 6.64E−07. The GI50 (IGROV-1; Homo sapiens, IGROV-1, 48 h, read-out: GI50 IGROV, SRB assay, 48 hours exposure) was 0.339 µM, the “TGI IGROV” value (IGROV-1; SRB assay, 48 hours exposure) was 6.92E−07 and the CC50 (IGROV-1; SRB assay, 48 hours exposure) was 1.41 µM. For the same compound, the “TGI MEL-28” value (SK-MEL-28) was 9.68E−07, the GI50 (SK-MEL-28) was 0.397 µM and the CC50 (SK-MEL-28) was 3.45 µM. For the same compound, the GI50 (DU-145; Homo sapiens, DU-145, 48 h, read-out: GI50 DU-145, SRB assay, 48 hours exposure) was 0.355 µM, the “TGI DU-145” value (DU-145; SRB assay, 48 hours exposure) was 1.03E−06 and the CC50 (DU-145; SRB assay, 48 hours exposure) was 10.7 µM. For the same compound, the GI50 (A-549; Homo sapiens, A549, 48 h, read-out: GI50 A-549, SRB assay, 48 hours exposure) was 0.887 µM, the CC50 (A-549; Homo sapiens, A549, 48 h, read-out: LC50 A-549, SRB assay, 48 hours exposure) was 7.05 µM and the “TGI A-549” value (A-549; SRB assay, 48 hours exposure) was 2.05E−06. For the same compound, the GI50 (PANC-1; Homo sapiens, PANC-1, 48 h, read-out: GI50 PANC-1, SRB assay, 48 hours exposure) was 1.18 µM, the CC50 (PANC-1; Homo sapiens, PANC-1, 48 h, read-out: LC50 PANC-1, SRB assay, 48 hours exposure) was 15.8 µM and the “TGI PANC-1” value (PANC-1; SRB assay, 48 hours exposure) was 4.98E−06. For the same compound, the GI50 (IGROV-ET; Homo sapiens, 48 h, read-out: GI50 IGROV-ET, SRB assay, 48 hours exposure) was 1.92 µM, the CC50 (IGROV-ET; Homo sapiens, 48 h, read-out: LC50 IGROV-ET, SRB assay, 48 hours exposure) was 15.8 µM and the “TGI IGROV-ET” value (IGROV-ET; SRB assay, 48 hours exposure) was 6.95E−06. For the same compound, the GI50 (HT-29; Homo sapiens, HT-29, 48 h, read-out: GI50 HT-29, SRB assay, 48 hours exposure) was 1.27 µM, the CC50 (HT-29; Homo sapiens, HT-29, 48 h, read-out: LC50 HT-29, SRB assay, 48 hours exposure) was 15.8 µM and the “TGI HT-29” value (HT-29; SRB assay, 48 hours exposure) was 1.44E−05.

`Cl.Nc1nccc(-c2c3c(N)ccnc3n3c(N)nccc23)n1` [Compound 91] was tested, and the “TGI K-562” value (K-562; SRB assay, 48 hours exposure) was 3.78E−06, the GI50 (K-562; read-out: GI50 K-562, SRB assay, 48 hours exposure) was 1.32 µM and the CC50 (K-562; read-out: LC50 K-562, SRB assay, 48 hours exposure) was 24.9 µM. For the same compound, the “TGI LOVO” value (LoVo; SRB assay, 48 hours exposure) was 8.49E−07, the GI50 (LoVo; read-out: GI50 LOVO, SRB assay, 48 hours exposure) was 0.201 µM and the CC50 (LoVo; SRB assay, 48 hours exposure) was 6.82 µM. The “TGI LOVO-DOX” value (LoVo-Dox; SRB assay, 48 hours exposure) was 1.86E−06, the GI50 (LoVo-Dox; read-out: GI50 LOVO-DOX, SRB assay, 48 hours exposure) was 0.774 µM and the CC50 (LoVo-Dox; read-out: LC50 LOVO-DOX, SRB assay, 48 hours exposure) was 7.47 µM. The “TGI SKOV-3” value (SK-OV-3; SRB assay, 48 hours exposure) was 2.12E−06, the GI50 (SK-OV-3; read-out: GI50 SKOV-3, SRB assay, 48 hours exposure) was 0.7 µM and the CC50 (SK-OV-3; read-out: LC50 SKOV-3, SRB assay, 48 hours exposure) was 24.9 µM. The “TGI SK-BR-3” value (SK-BR-3; SRB assay, 48 hours exposure) was 6.45E−07, the GI50 (SK-BR-3; read-out: GI50 SK-BR-3, SRB assay, 48 hours exposure) was 0.251 µM and the CC50 (SK-BR-3; read-out: LC50 SK-BR-3, SRB assay, 48 hours exposure) was 1.65 µM. For the same compound, the “TGI IGROV” value (IGROV-1; SRB assay, 48 hours exposure) was 9.73E−07, the GI50 (IGROV-1; read-out: GI50 IGROV, SRB assay, 48 hours exposure) was 0.241 µM and the CC50 (IGROV-1; SRB assay, 48 hours exposure) was 6.02 µM. The “TGI MEL-28” value (SK-MEL-28) was 5.10E−07, the GI50 (SK-MEL-28) was 0.18 µM and the CC50 (SK-MEL-28) was 1.25 µM. For the same compound, the “TGI DU-145” value (DU-145; SRB assay, 48 hours exposure) was 1.34E−06, the GI50 (DU-145; read-out: GI50 DU-145, SRB assay, 48 hours exposure) was 0.336 µM and the CC50 (DU-145; SRB assay, 48 hours exposure) was 24.9 µM. For the same compound, the “TGI A-549” value (A-549; SRB assay, 48 hours exposure) was 2.09E−06, the GI50 (A-549; read-out: GI50 A-549, SRB assay, 48 hours exposure) was 1.09 µM and the CC50 (A-549; read-out: LC50 A-549, SRB assay, 48 hours exposure) was 8.29 µM. For the same compound, the “TGI PANC-1” value (PANC-1; SRB assay, 48 hours exposure) was 2.44E−06, the GI50 (PANC-1; read-out: GI50 PANC-1, SRB assay, 48 hours exposure) was 0.896 µM and the CC50 (PANC-1; read-out: LC50 PANC-1, SRB assay, 48 hours exposure) was 16.2 µM. For the same compound, the “TGI IGROV-ET” value (IGROV-ET; SRB assay, 48 hours exposure) was 1.98E−06, the GI50 (IGROV-ET; read-out: GI50 IGROV-ET, SRB assay, 48 hours exposure) was 1.16 µM and the CC50 (IGROV-ET; read-out: LC50 IGROV-ET, SRB assay, 48 hours exposure) was 24.9 µM. For the same compound, the “TGI HT-29” value (HT-29; SRB assay, 48 hours exposure) was 2.49E−06, the GI50 (HT-29; read-out: GI50 HT-29, SRB assay, 48 hours exposure) was 1.34 µM and the CC50 (HT-29; read-out: LC50 HT-29, SRB assay, 48 hours exposure) was 24.9 µM.

Reference: US7772241B2, “Variolin derivatives and their use as antitumor agents” (Pharma Mar S.A., priority 2001, dated 2010)
